The test system of series [1] is Rattus norvegicus. The series is described as follows: Antiinflammatory activity in carrageenan-induced paw edema Wistar rat model assessed as protection against edema formation up to 2000 mg/kg, po measured 3 hrs post dose relative to control. In kind it is functional. In general terms: Carrageenan injected into the paw causes an acute inflammation.
The next series concerns Salmonella typhimurium. The series is described as follows: Antibacterial activity against […] ATCC 14028 after 18 hrs by broth microdilution method. In kind it is functional, Salmonella enterica subsp. enterica serovar Typhimurium. The following applies: Salmonella enterica, ATCC 14028, 18 h. For orientation: In broth dilution the organism is exposed to a series of concentrations in liquid medium.

Another series has as its system Pseudomonas aeruginosa. The series is described as follows: Antibacterial activity against Pseudomonas aeruginosa ATCC 27853 after 18 hrs by broth microdilution method. The class given is functional. The following applies: ATCC 27853, 18 h.
A further series deals with Staphylococcus aureus. The series is described as follows: Antibacterial activity against Staphylococcus aureus ATCC 25923 after 18 hrs by broth microdilution method. The class given is functional. To be noted: ATCC 25923, 18 h.
Another series concerns Proteus vulgaris. The series is described as follows: Antibacterial activity against Proteus vulgaris ATCC 29905 after 18 hrs by broth microdilution method. The following applies: ATCC 29905, 18 h. The class given is functional.
In another series the test system is Escherichia coli. Put plainly: Antibacterial activity against Escherichia coli ATCC 25922 after 18 hrs by broth microdilution method. In kind it is functional. To be noted: ATCC 25922, 18 h.
Series [2] has as its system Mycobacterium tuberculosis. The series is described as follows: Antitubercular activity against Mycobacterium tuberculosis H37Rv after 5 days by MABA method. The class given is functional. To be noted: 120 h. A general note: Resazurin is reduced to fluorescent resorufin, in cell work by metabolically active cells.
Series [3] has as its system Rattus norvegicus. Put plainly: Antiinflammatory activity in carrageenan-induced paw edema rat model assessed as inhibition of carrageenan-induced edema relative to control. In kind it is functional.
For the next series, the system named is WI-38. Put plainly: Cytotoxicity against human WI38 cells assessed as cell growth inhibition after 48 hrs by SRB assay. The class given is cell-based. To be noted: WI-38, 48 h.
In series [4] the test system is Plasmodium falciparum. Put plainly: Antiplasmodial activity against Plasmodium falciparum K1 infected in human erythrocytes preincubated for 24 hrs followed by [3H]hypoxanthine addition measured after 24 hrs by scintillation counting. The class given is functional, organism-based.
Series [5] deals with Plasmodium falciparum. The series is described as follows: Antiplasmodial activity against chloroquine-resistant Plasmodium falciparum FCR-3 infected in human erythrocytes after 3 days by [3H]-hypoxanthine incorporation assay. The class given is functional, organism-based. To be noted: FCR-3/Gambia.
In series [6] the test system is Rattus norvegicus. Put plainly: Antiinflammatory activity in carrageenan-induced paw edema Fisher 344 rat model assessed as protection against carrageenan-induced edema at 0.01 mmol/kg, ip administered simultaneously with carrageenan measured at 3.5 hrs post carrageenan injection relative to control. The class given is functional. To be noted: Fisher 344, ip.
A short description of series [7]: Therapeutic index, ratio of CC50 for human MT4 cells to EC50 for HIV1 infected in human MT4 cells. The class given is toxicity, cell-based. To be noted: uninfected versus HIV1-infected, read-out: Ratio EC50.
Another series concerns IMR-32. Put plainly: Antiproliferative activity against human IMR32 cells after 72 hrs by MTT assay. The class given is functional, cell-based. The following applies: IMR-32, 72 h.
The subject of another series is SK-N-SH. Put plainly: Antiproliferative activity against human SK-N-SH cells after 72 hrs by MTT assay. The class given is functional, cell-based.
Series [8] can be described thus: Selectivity index, ratio of IC50 for human KB cells to IC50 for Plasmodium falciparum K1 infected in human erythrocytes. The class given is toxicity, cell-based. The following applies: read-out: Ratio IC50.

Values after ≈ are worked out from the molar mass of the structure shown.

Turning to `Cc1nc2ccccc2nc1CCC(=O)N/N=C/c1ccccc1`, the “inhibition (INH)” value in the series with Rattus norvegicus [1] is 55.3 - 65.9%. On the same count and under the same terms, next, `Cc1nc2ccccc2nc1CCC(=O)N/N=C/c1ccc(Cl)cc1`: 55.3 - 65.9%. What is called MIC is the least concentration at which growth counts as inhibited. High values mean weaker potency, low ones greater potency. For the molecule `O=c1[nH]c2ccccc2[nH]/c1=N/N=C/[C@@H]1O[C@H](CO)[C@@H](O[C@@H]2O[C@H](CO)[C@H](O)[C@H](O)[C@H]2O)[C@H](O)[C@H]1O`, the MIC in the series with Salmonella typhimurium turned out to be 2.07 µM (≈ 1.06 µg/mL); against Pseudomonas aeruginosa, 2.07 µM (≈ 1.06 µg/mL); against Staphylococcus aureus it was 2.07 µM (≈ 1.06 µg/mL); against Proteus vulgaris, 2.07 µM (≈ 1.06 µg/mL); with Escherichia coli, 2.07 µM (≈ 1.06 µg/mL); in series [2] it was 0.65 µM (≈ 0.333 µg/mL). Consider `O=c1[nH]c2ccccc2[nH]/c1=N/N=C/[C@@H]1O[C@H](CO)[C@@H](O)[C@H](O)[C@@H]1O`, for which the MIC was 2.07 µM (≈ 0.725 µg/mL) in the series with Salmonella typhimurium; 2.07 µM (≈ 0.725 µg/mL) against Pseudomonas aeruginosa; 2.07 µM (≈ 0.725 µg/mL) against Staphylococcus aureus; 2.07 µM (≈ 0.725 µg/mL) with Proteus vulgaris; 2.07 µM (≈ 0.725 µg/mL) in the series with Escherichia coli; 0.65 µM (≈ 0.228 µg/mL) in series [2]. Regarding `CC(C)Cc1ccc(C(C)C(=O)O)cc1` (stereo not given) [IBUPROFEN], the “inhibition (INH)” value with Rattus norvegicus [1] turned out to be 73.5%. Take `COc1ccc(/C=N/N=c2/[nH]c3ccc(C)cc3nc2CCC(=O)O)cc1`: the “inhibition (INH)” value in the series on Rattus norvegicus [3] worked out at 69.85%. As usually defined, the IC50 is the midpoint of a concentration-inhibition curve. Take `Brc1ccc2nc(N3CCOCC3)c3nnnn3c2c1`: the IC50 with WI-38 was greater than 100 µg/mL. Molecule `COc1ccc2c(c1)[n+]([O-])c(C#N)c(-c1ccco1)[n+]2[O-]` returned a half-maximal inhibitory concentration (IC50) in the series on Plasmodium falciparum [4] of 0.28 µM. For `Brc1ccc2nc(N3CCCCC3)c3nnnn3c2c1`, the half-maximal inhibitory concentration (IC50) with WI-38 was greater than 100 µg/mL.

As for `O=c1[nH]c2ccccc2[nH]/c1=N/N=C/[C@@H]1O[C@H](CO)[C@@H](O[C@H]2O[C@H](CO)[C@@H](O)[C@H](O)[C@H]2O)[C@H](O)[C@H]1O`, the minimum inhibitory concentration (MIC) with Salmonella typhimurium was 2.07 µM (≈ 1.06 µg/mL); in the series on Pseudomonas aeruginosa, 2.07 µM (≈ 1.06 µg/mL); with Staphylococcus aureus it was 2.07 µM (≈ 1.06 µg/mL); against Proteus vulgaris, 2.07 µM (≈ 1.06 µg/mL); against Escherichia coli it was 2.07 µM (≈ 1.06 µg/mL); in series [2], 0.65 µM (≈ 0.333 µg/mL).

For the molecule `Cc1nc2ccccc2nc1CCC(=O)N/N=C/c1c[nH]c2ccccc12`, the “inhibition (INH)” value in the series with Rattus norvegicus [1] is recorded as 55.3 - 65.9%. On to `Brc1ccc2c(c1)n1nnnc1c1nnnn21`, for which the IC50 with WI-38 is greater than 100 µg/mL. Take `Cc1nc2ccccc2nc1CCC(=O)N/N=C/c1ccc(N(C)C)cc1`: in the series with Rattus norvegicus [1], the “inhibition (INH)” value was 55.3 - 65.9%.

Regarding `Cc1nc2ccccc2nc1CCC(=O)N/N=C/c1ccco1`, in the series on Rattus norvegicus [1], the “inhibition (INH)” value is on record as 55.3 - 65.9%.

For `O=c1[nH]c2ccccc2[nH]/c1=N/N=C/[C@@H]1O[C@H](CO)[C@@H](O)[C@H](O)[C@H]1O`, the MIC was 2.07 µM (≈ 0.725 µg/mL) against Salmonella typhimurium; 2.07 µM (≈ 0.725 µg/mL) in the series on Pseudomonas aeruginosa; 2.07 µM (≈ 0.725 µg/mL) with Staphylococcus aureus; 2.07 µM (≈ 0.725 µg/mL) in the series on Proteus vulgaris; 2.07 µM (≈ 0.725 µg/mL) against Escherichia coli; 0.65 µM (≈ 0.228 µg/mL) in series [2]. Consider `COc1cc(/C=C/C(=O)c2c(C)[n+]([O-])c3ccccc3[n+]2[O-])cc(OC)c1OC`, for which, in the series on Plasmodium falciparum [5], inhibition was half-maximal at 6.2 µM (IC50). As to `Cc1nc2ccccc2nc1CCC(=O)N/N=C/c1ccc(O)cc1`, the “inhibition (INH)” value in the series on Rattus norvegicus [1] is given as 55.3 - 65.9%.

A word on the inhibition in vivo: it is the relative decrease from the control value, in per cent. Take `COc1ccc2nc(C)c(-c3cc(-c4cc(OC)c(OC)c(OC)c4)nc(N)n3)nc2c1`: the inhibition in vivo at 10 µmol/kg in the series with Rattus norvegicus [6] is 41%. Turning to `Cc1cc2ncc(=O)n(CC(O)CO)c2cc1C` (stereo not given), the selectivity ratio in series [7] is 73. `COc1ccc(/C=N/N=c2/[nH]c3ccccc3nc2CCC(=O)O)cc1`: the “inhibition (INH)” value with Rattus norvegicus [3] was determined as 66.04%. Take `COc1ccc2c(c1)c(CC(=O)O)c(C)n2C(=O)c1ccc(Cl)cc1` [INDOMETHACIN]: in the series with Rattus norvegicus [3], the “inhibition (INH)” value came to 79.5%. The inhibition in vivo at 10 µmol/kg with Rattus norvegicus [6] was 47%.

In the series with Plasmodium falciparum [5], `Cc1c(C(=O)/C=C/c2ccc3ccccc3c2)[n+]([O-])c2ccccc2[n+]1[O-]` gave an IC50 of 5.8 µM. As to `c1ccc2nccnc2c1` [QUINOXALINE], the IC50 in the series on IMR-32 was found to be 13 µM; with SK-N-SH, 4.6 µM.

As for `N#Cc1c(-c2ccco2)[n+]([O-])c2ccccc2[n+]1[O-]`, in series [8], the selectivity ratio stood at 10.3. Besides, in the series with Plasmodium falciparum [4], inhibition was half-maximal at 0.63 µM (IC50). With `O=[N+]([O-])c1ccc(C2OC2c2cnc3ccccc3n2)o1` (stereo not given), the IC50 in the series with IMR-32 came to 5 µM; in the series with SK-N-SH, 3.9 µM. For `[N-]=[N+]=Nc1nc2cc(Br)ccc2nc1Cl`, the IC50 with WI-38 is greater than 100 µg/mL.
